Test results from patent publication US20260232666A1, “COMPOSITIONS AND METHODS FOR INHIBITION OF RAS” (TheRas, Inc., priority 2023, published 2026).

Tests used:
[1] = target: T1, Avi-KRAS G12C (1-169) GppNHp/RAF1 RBD-3×FLAG (52-151) (Homo sapiens, UniProt P01116, G12C); experiment: Raf1 RBD-KRAS G12C-GppNHp disruption assay (protein:protein interaction HTRF); assay type: biochemical
T1 construct: Avi-KRAS G12C (1-169) GppNHp; Avi (N)
Method: Biological Example 2: Disrupting KRAS G12C-Effector Binding (Protein: Protein Interaction HTRF Assay)
A protein: protein interaction (PPI) Homogeneous Time Resolved Fluorescence (HTRF) assay was used to determine the effectiveness of compounds of the present disclosure in disrupting KRAS G12C protein and effector (RAF1 Ras Binding Domain (RBD)) binding.
The HTRF assay used the following reagents and proteins: 50 nM Avi-KRAS G12C (1-169) GppNHp/RAF1 RBD-3×FLAG (52-151); 35 nM Avi-PI3K RBD-3×FLAG; Assay Buffer: 50 mM Tris pH 7.5, 100 mM NaCl, 5 mM MgCl2, 0.1% BSA, 0.01% Tween 20, 10% DMSO; Bead Buffer: 50 mM Tris pH 7.5, 0.01% Tween 20; Assay volume: 20 μL (384 well plate-low volume format); and Compound titration: 30-0.02 μM, 3× dilution series.
The HTRF assay employed the following protocol:
Compounds were dispensed in assay plate (384-well, Grenier Bio-One #784075) using Echo (model 555) with dose response settings: 200 nL final volume, titration from 100 μM as a 10-point dilution series. KRAS proteins were prepared in assay buffer, and dispensed on plates, 5 μL per well, then incubated for 1 h at room temperature, with 700 rpm shaking. RAF1 RBD were prepared in assay buffer, dispensed onto plates, 5 μL per well, and then incubated for 1 h at room temperature, with 700 rpm shaking. Reagent mix was then prepared and dispensed on plates, 10 μL per well, and then incubated for 1 h at room temperature, with 700 rpm shaking.
Plates were analyzed on an Envision plate reader using the following setting: Excitation 320 nm, Bandwidth 75 nm; Emission 615 nm, Bandwidth 85 nm; Gain 100%; Flashes 100; Lag 60 μs. Data was reported as percentage of activity, with DMSO as 100%. Data was plotted and analyzed using Prism 8.
The percent of modification of GppNHp, GTP, or GDP loaded KRAS G12C by MALDI-TOF MS, biochemical Raf1 RBD-KRAS G12C-GppNHp disruption assay IC50, and pERK inhibition IC50 of selected compounds described herein are shown in Table 4. For percent of modification at 15 minutes (MALDI-TOF MS) of GppNHp, GTP, or GDP loaded KRAS G12C: A: percent of modification ≥70%; B: 50≤percent of modification <70%; C: 10%≤percent of modification <50%; D: percent of modification <10%. […] For pERK inhibition in H358 cell assay: A: IC50≤0.1 μM; B: 0.1 μM<IC50≤1 μM; C: IC50>1 μM. Blanks in the table represent that compound was not tested in the indicated assay.

pERK in NCI-H358 cells = experiment: Cell-based pERK HTRF assay (pERK inhibition in H358 cells); conditions: 30 min incubation
Procedure, shortened: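 NCI-H358 cells were seeded at 4×10^4 cells/well in RPMI/10% FBS, then treated next day for 30 min at 0.25% DMSO (9-point, 3-fold series from 75 μM). Lysates were read by HTRF (d2/Eu cryptate antibody pair, 615 nm emission) after 4–24 h at room temperature to give pERK IC50.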

T1 sequence (P01116 1-169 isoform P01116-2 G12C limits assumed): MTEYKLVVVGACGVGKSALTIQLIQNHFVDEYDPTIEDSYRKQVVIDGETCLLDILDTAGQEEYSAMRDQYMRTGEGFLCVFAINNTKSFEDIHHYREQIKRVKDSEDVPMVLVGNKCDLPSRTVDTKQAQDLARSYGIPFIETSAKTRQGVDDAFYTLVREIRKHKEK

| IC50 [1] [nM] | IC50 (pERK in NCI-H358 cells; Homo sapiens, NCI-H358, 0.5 h) [nM] | IC50 (pERK in NCI-H358 cells) [nM] | Compound |
| --- | --- | --- | --- |
| < 500 | < 100 | – | C=CC(=O)N1CC[C@@H](N(C)c2nc(OC[C@@]34CCCN3C[C@H](F)C4)nc3c(F)c(-c4ccc(F)c5sc(N)c(C#N)c45)c(C(F)(F)F)cc23)[C@H]1CC [Compound 18] |
| < 500 | < 100 | – | C=CC(=O)N1CC[C@@H](N(C)c2nc(OC[C@@]34CCCN3C[C@H](F)C4)nc3c(F)c(-c4ccc(F)c5sc(N)c(C#N)c45)c(Cl)cc23)[C@H]1CC [Compound 19] |
| < 500 | < 100 | – | C=CC(=O)N1CC[C@@H](N(CC)c2nc(OC[C@@]34CCCN3C[C@H](F)C4)nc3c(F)c(-c4ccc(F)c5sc(N)c(C#N)c45)c(Cl)cc23)[C@H]1CC [Compound 20] |
| 500 to 5000 | < 100 | – | C=CC(=O)N1CC[C@@H](N(C)c2nc(OC[C@@]34CCCN3C[C@H](F)C4)nc3cc(-c4ccc(F)c5sc(N)c(C#N)c45)c(F)cc23)[C@@H]1CC [Compound 22] |
| < 500 | < 100 | – | C=CC(=O)N1CC[C@@H](N(C)c2nc(OC[C@@]34CCCN3C[C@H](F)C4)nc3c(F)c(-c4ccc(F)c5sc(N)c(C#N)c45)ccc23)[C@@H]1CC [Compound 23] |
| < 500 | < 100 | – | C=CC(=O)N1CC[C@@H](N(C)c2nc(OC[C@@]34CCCN3C[C@H](F)C4)nc3cc(-c4ccc(F)c5sc(N)c(C#N)c45)c(C#N)cc23)[C@@H]1CC [Compound 24] |
| < 500 | < 100 | – | C=CC(=O)N1CC[C@@H](N(CC)c2nc(OC[C@@]34CCCN3C[C@H](F)C4)nc3cc(-c4ccc(F)c5sc(N)c(C#N)c45)c(C#N)cc23)[C@H]1C [Compound 25] |
| < 500 | < 100 | – | C=CC(=O)N1CC[C@@H](N(C)c2nc(OC[C@@]34CCCN3C[C@H](F)C4)nc3cc(-c4ccc(F)c5sc(N)c(C#N)c45)c(C#N)cc23)[C@@H]1C [Compound 27] |
| < 500 | < 100 | – | C=CC(=O)N1CC[C@@H](N(C)c2nc(OC[C@@]34CCCN3C[C@H](F)C4)nc3cc(-c4ccc(F)c5sc(N)c(C#N)c45)c(F)cc23)[C@H]1CC [Compound 29] |
| < 500 | < 100 | – | C=CC(=O)N1CC[C@@H](N(C)c2nc(OC[C@@H]3CCCN3CC)nc3c(F)c(-c4ccc(F)c5sc(N)c(C#N)c45)c(C(F)(F)F)cc23)[C@@H]1C [Compound 30] |
| < 500 | < 100 | – | C=CC(=O)N1CC[C@@H](N(C)c2nc(OC[C@@]34CCCN3C[C@H](F)C4)nc3cc(-c4ccc(F)c5sc(N)c(C#N)c45)c(F)cc23)[C@@H]1C [Compound 31] |
| < 500 | < 100 | – | C=CC(=O)N1CC[C@@H](N(C)c2nc(OC[C@@H]3C[C@@H](F)CN3C)nc3c(F)c(-c4ccc(F)c5sc(N)c(C#N)c45)c(C(F)(F)F)cc23)[C@@H]1C [Compound 32] |
| < 500 | < 100 | – | C=CC(=O)N1CC[C@@H](N(C)c2nc(OC[C@@H]3C[C@@H](OC)CN3C)nc3c(F)c(-c4ccc(F)c5sc(N)c(C#N)c45)c(C(F)(F)F)cc23)[C@@H]1C [Compound 33] |
| 500 to 5000 | 100 to 1000 | – | C=CC(=O)N1C[C@H]2CC[C@@H]1CN2c1nc(OC[C@@]23CCCN2C[C@H](F)C3)nc2c(F)c(-c3ccc(F)c4sc(N)c(C#N)c34)c(C(F)(F)F)cc12 [Compound 36] |
| < 500 | < 100 | – | C=CC(=O)N1CC[C@@H](N(C)c2nc(OC[C@@H]3C[C@@H](OC)CN3CC)nc3c(F)c(-c4ccc(F)c5sc(N)c(C#N)c45)c(C(F)(F)F)cc23)[C@@H]1C [Compound 101] |
| < 500 | < 100 | – | C=CC(=O)N1CC[C@@H](N(C)c2nc(OC[C@@H]3C[C@@H](OC)CN3CC)nc3c(F)c(-c4ccc(F)c5sc(N)c(C#N)c45)c(C(F)(F)F)cc23)[C@H]1C [Compound 104] |
| < 500 | < 100 | – | C=CC(=O)N1CC[C@@H](N(C)c2nc(OC[C@@H]3C[C@@H](F)CN3CC)nc3c(F)c(-c4ccc(F)c5sc(N)c(C#N)c45)c(Cl)cc23)[C@@H]1C [Compound 105] |
| < 500 | < 100 | – | C=CC(=O)N1CCN(c2nc(OC[C@@]34CCCN3C[C@H](F)C4)nc3c(F)c(-c4ccc(F)c5sc(N)c(C#N)c45)c(C(F)(F)F)cc23)C2CC21 (stereo partly shown) [Compound 106] |
| < 500 | < 100 | – | C=CC(=O)N1CC[C@@H](N(C)c2nc(OC[C@@H]3C[C@@H](F)CN3CC)nc3c(F)c(-c4ccc(F)c5sc(N)c(C#N)c45)c(C(F)(F)F)cc23)[C@H]1C [Compound 107] |
| < 500 | < 100 | – | C=CC(=O)N1C[C@H](N(C)c2nc(OC[C@@]34CCCN3C[C@H](F)C4)nc3c(F)c(-c4ccc(F)c5sc(N)c(C#N)c45)c(C(F)(F)F)cc23)C[C@@H]1C [Compound 108] |
| < 500 | < 100 | – | C=CC(=O)N1C[C@H](N(C)c2nc(OC[C@@]34CCCN3C[C@H](F)C4)nc3cc(-c4ccc(F)c5sc(N)c(C#N)c45)c(F)cc23)C[C@@H]1C [Compound 109] |
| < 500 | 100 to 1000 | – | C=CC(=O)N1CC[C@@H](N(C)c2nc(OC[C@@]34CCCN3C[C@H](F)C4)nc3cc(-c4nc(N)cc(C)c4C(F)(F)F)c(F)cc23)[C@H]1C [Compound 110] |
| 500 to 5000 | – | 100 to 1000 | C=CC(=O)N1CC[C@@H](N(C)c2nc(OC[C@@H]3CC4(CC4)CN3C)nc3c(F)c(-c4ccc(F)c5sc(N)c(C#N)c45)c(C(F)(F)F)cc23)[C@@H]1C [Compound 112] |
| < 500 | 100 to 1000 | – | C=CC(=O)N1CC[C@@H](N(C)c2nc(OC[C@@]34CCCN3C[C@H](F)C4)nc3c(F)c(-c4nc(N)cc(C)c4C(F)(F)F)ccc23)[C@H]1C [Compound 115] |
| < 500 | 100 to 1000 | – | C=CC(=O)N1CC[C@@H](N(C)c2nc(OC[C@@H]3CCCN3C)nc3c(F)c(-c4nc(N)cc(C)c4C(F)(F)F)c(C(F)(F)F)cc23)[C@H]1C [Compound 122] |
| < 500 | < 100 | – | C=CC(=O)N1C[C@@H](C)N(c2nc(OC[C@@]34CCCN3C[C@H](F)C4)nc3c(F)c(-c4ccc(F)c5sc(N)c(C#N)c45)c(C(F)(F)F)cc23)C[C@@H]1C [Compound 124] |
| < 500 | < 100 | – | C=CC(=O)N1CC[C@@H](N(CC)c2nc(OC[C@@H]3CCCN3C)nc3cc(-c4ccc(F)c5sc(N)c(C#N)c45)c(F)cc23)[C@H]1C [Compound 138] |
| < 500 | 100 to 1000 | – | C=CC(=O)N1CC[C@@H](N(CC)c2nc(OC[C@@H]3C[C@@H](F)CN3C)nc3cc(-c4ccc(F)c5sc(N)c(C#N)c45)c(F)cc23)[C@H]1C [Compound 139] |
| < 500 | < 100 | – | C=CC(=O)N1CC[C@@H](N(CC)c2nc(OC[C@@H]3C[C@@H](OC)CN3C)nc3cc(-c4ccc(F)c5sc(N)c(C#N)c45)c(F)cc23)[C@H]1C [Compound 140] |
| < 500 | < 100 | – | C=CC(=O)N1CC[C@@H](N(CC)c2nc(OC[C@@H]3CCCN3C)nc3c(F)c(-c4ccc(F)c5sc(N)c(C#N)c45)ccc23)[C@H]1C [Compound 141] |

| Compound | IC50 [1] [nM] | IC50 (pERK in NCI-H358 cells; Homo sapiens, NCI-H358, 0.5 h) [nM] | IC50 (pERK in NCI-H358 cells) [nM] |
| --- | --- | --- | --- |
| C=CC(=O)N1C2CCC1CN(c1nc(OC[C@@]34CCCN3C[C@H](F)C4)nc3c(F)c(-c4ccc(F)c5sc(N)c(C#N)c45)c(C(F)(F)F)cc13)C2 [Compound 34] | < 500 | < 100 | – |
| C=CC(=O)N1C2CC1CN(c1nc(OC[C@@]34CCCN3C[C@H](F)C4)nc3c(F)c(-c4ccc(F)c5sc(N)c(C#N)c45)c(C(F)(F)F)cc13)C2 [Compound 35] | < 500 | < 100 | – |
